The source made the active and inactive calls. The rule behind the calls is not given here.
Experiments:
[1] = tested on: MCF7; assay: Antiproliferative activity against human MCF7 cell incubated for 72 hrs by MTT assay; assay type: functional, cell-based; settings: MCF7, 72 h
[2] = target: T1, Estrogen receptor (Homo sapiens) (UniProt P03372); assay: Induction of ERalpha degradation in human MCF7 cells assessed as decrease in ERalpha protein expression at 5 uM incubated for 24 hrs by Western blot analysis relative to control; assay type: cell-based; set-up: scale not given: the % may be the effect or the level left
T1 sequence (whole entry): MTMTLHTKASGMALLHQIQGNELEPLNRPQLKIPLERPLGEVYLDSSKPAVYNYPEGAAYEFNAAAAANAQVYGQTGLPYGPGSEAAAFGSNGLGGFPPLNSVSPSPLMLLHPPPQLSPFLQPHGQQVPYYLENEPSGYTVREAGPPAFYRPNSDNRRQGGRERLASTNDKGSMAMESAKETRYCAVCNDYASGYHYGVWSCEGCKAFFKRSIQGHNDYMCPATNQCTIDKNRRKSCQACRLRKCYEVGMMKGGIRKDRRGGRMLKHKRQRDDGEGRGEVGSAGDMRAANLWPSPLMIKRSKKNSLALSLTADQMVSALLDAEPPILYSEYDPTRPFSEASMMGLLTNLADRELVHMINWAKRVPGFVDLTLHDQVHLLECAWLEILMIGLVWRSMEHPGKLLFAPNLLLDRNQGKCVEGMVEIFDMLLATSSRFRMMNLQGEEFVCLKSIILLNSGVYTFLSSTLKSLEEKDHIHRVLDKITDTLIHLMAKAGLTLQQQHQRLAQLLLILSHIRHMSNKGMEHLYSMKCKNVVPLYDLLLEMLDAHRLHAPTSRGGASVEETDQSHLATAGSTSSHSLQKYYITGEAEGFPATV

[3] = Therapeutic index, ratio of IC50 for cytotoxicity against human MCF10A cells to IC50 for antiproliferative activity against human MCF7 cells; assay type: toxicity, cell-based; settings: read-out: Ratio IC50
[4] = target: Estrogen receptor beta (Homo sapiens) (UniProt Q92731); assay: Binding affinity to ERbeta (unknown origin) by competitive fluorometric receptor binding assay relative to estradiol
[5] = tested on: MCF-10A; assay: Cytotoxicity against human MCF10A cell incubated for 72 hrs by MTT assay; assay type: cell-based
[6] = target: T1, Estrogen receptor (Homo sapiens); assay: Binding affinity to ERalpha (unknown origin) by competitive fluorometric receptor binding assay relative to estradiol

Chain of Estrogen receptor beta (Homo sapiens) (Q92731 whole entry): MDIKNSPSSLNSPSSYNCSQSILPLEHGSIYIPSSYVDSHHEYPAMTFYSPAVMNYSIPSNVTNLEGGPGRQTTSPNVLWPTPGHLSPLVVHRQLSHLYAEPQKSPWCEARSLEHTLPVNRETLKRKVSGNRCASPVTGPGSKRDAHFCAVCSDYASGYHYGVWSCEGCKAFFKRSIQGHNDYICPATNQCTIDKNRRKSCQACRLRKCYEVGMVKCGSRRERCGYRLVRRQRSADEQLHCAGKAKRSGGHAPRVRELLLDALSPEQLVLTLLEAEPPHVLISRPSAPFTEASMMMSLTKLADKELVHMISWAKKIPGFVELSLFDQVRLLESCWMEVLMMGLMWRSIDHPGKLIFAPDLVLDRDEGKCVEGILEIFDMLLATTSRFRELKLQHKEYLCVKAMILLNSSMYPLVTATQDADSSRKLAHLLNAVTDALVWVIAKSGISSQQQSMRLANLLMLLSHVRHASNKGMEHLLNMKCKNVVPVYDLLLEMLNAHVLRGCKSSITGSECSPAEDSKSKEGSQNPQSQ

Row | IC50 [1] [µM] | Activity [2] | relative binding affinity (RBA) [4] | relative binding affinity (RBA) [6] | Compound | selectivity ratio [3] | IC50 [5] [µM]
1 | 0.84 | 100% | 0.08 | 4.43 | CCCCCCOc1ccc(C2=C(c3ccc(O)cc3)[C@H]3O[C@@H]2C[C@@H]3S(=O)(=O)N(CC(F)(F)F)c2ccc(OC)cc2)cc1 | 50.4 | 42.4
2 | 1.38 |  | 0.02 | 3.49 | CCCCCCOc1ccc(C2=C(c3ccc(O)cc3)[C@H]3O[C@@H]2C[C@@H]3S(=O)(=O)N(CC(F)(F)F)c2ccc(Cl)cc2)cc1 (relative stereo) | 28.7 | 39.7
3 | 1.16 |  | 0.05 | 1.03 | CCCCCCCCOc1ccc(C2=C(c3ccc(O)cc3)[C@H]3O[C@@H]2C[C@@H]3S(=O)(=O)N(CC)c2ccccc2)cc1 (relative stereo) | 29.8 | 34.6
4 | 1.48 | Active | 0.14 | 2.29 | CCCCCCOc1ccc(N(CC)S(=O)(=O)[C@H]2C[C@H]3O[C@@H]2C(c2ccc(O)cc2)=C3c2ccc(O)cc2)cc1 (relative stereo) | 24.6 | 36.5
5 | 5.89 |  | 0.02 | 0.55 | CCCCCCCCOc1ccc(C2=C(c3ccc(O)cc3)[C@H]3C[C@H](S(=O)(=O)N(CC)c4ccccc4)[C@@H]2O3)cc1 (racemic) | 10 | 59.4
6 | 3.45 |  | 0.35 | 2.99 | CCCCCCOc1ccc(C2=C(c3ccc(O)cc3)[C@H]3C[C@H](S(=O)(=O)N(CC)c4ccccc4)[C@@H]2O3)cc1 (relative stereo) | > 28.9 | > 100
7 | 86.7 |  | 0.01 | 0.32 | CCCCCCCCCCCCOc1ccc(C2=C(c3ccc(O)cc3)[C@H]3O[C@@H]2C[C@@H]3S(=O)(=O)N(CC(F)(F)F)c2ccc(OC)cc2)cc1 (relative stereo) | > 1.1 | > 100
8 | 4.14 | Active | 0.12 | 2.02 | CCCCCCOc1ccc(N(C)S(=O)(=O)[C@H]2C[C@H]3O[C@@H]2C(c2ccc(O)cc2)=C3c2ccc(O)cc2)cc1 (relative stereo) | 7.3 | 30.4
9 | 2.43 | 100% | 0.27 | 1.81 | CCCCOc1ccc(C2=C(c3ccc(O)cc3)[C@H]3O[C@@H]2C[C@@H]3S(=O)(=O)N(CC(F)(F)F)c2ccc(OC)cc2)cc1 (relative stereo) | 32.2 | 78.3
10 | 3.29 |  | 0.05 | 3.26 | CCCCOc1ccc(C2=C(c3ccc(O)cc3)[C@H]3C[C@H](S(=O)(=O)N(CC)c4ccccc4)[C@@H]2O3)cc1 (relative stereo) | 17.9 | 59.2
11 | 1.78 | 100% | 0.24 | 1.53 | CCCCCOc1ccc(C2=C(c3ccc(O)cc3)[C@H]3O[C@@H]2C[C@@H]3S(=O)(=O)N(CC(F)(F)F)c2ccc(OC)cc2)cc1 (relative stereo) | > 56.1 | > 100
12 | > 100 |  | 0.15 | 0.06 | CCCCCCCCCCCCOc1ccc(C2=C(c3ccc(O)cc3)[C@H]3C[C@H](S(=O)(=O)N(CC(F)(F)F)c4ccc(OC)cc4)[C@@H]2O3)cc1 (relative stereo) |  | > 100
13 | 31.8 |  | 0.6 | 0.85 | CCCCCCCCCCOc1ccc(C2=C(c3ccc(O)cc3)[C@H]3C[C@H](S(=O)(=O)N(CC(F)(F)F)c4ccc(OC)cc4)[C@@H]2O3)cc1 (relative stereo) | > 3.1 | > 100
14 | 2.95 |  | 0.05 | 4.25 | CCCCOc1ccc(C2=C(c3ccc(O)cc3)[C@H]3C[C@H](S(=O)(=O)N(CC(F)(F)F)c4ccc(Cl)cc4)[C@@H]2O3)cc1 (relative stereo) | 15.5 | 45.8
15 | 2.21 |  | 0.32 | 1.08 | CCCCCCCCOc1ccc(C2=C(c3ccc(O)cc3)[C@H]3C[C@H](S(=O)(=O)N(CC(F)(F)F)c4ccc(OC)cc4)[C@@H]2O3)cc1 (relative stereo) | > 45.2 | > 100
16 | 1.15 | 100% | 0.01 | 8.37 | CCCCCCOc1ccc(C2=C(c3ccc(O)cc3)[C@H]3C[C@H](S(=O)(=O)N(CC(F)(F)F)c4ccc(OC)cc4)[C@@H]2O3)cc1 (relative stereo) | 33.9 | 39
17 | 2.39 |  | 0.15 | 1.59 | CCCCCCCCOc1ccc(C2=C(c3ccc(O)cc3)[C@H]3O[C@@H]2C[C@@H]3S(=O)(=O)N(CC(F)(F)F)c2ccc(OC)cc2)cc1 (relative stereo) | 17.9 | 42.8
18 | 3.02 | 100% | 0.85 | 2.11 | CCCCOc1ccc(C2=C(c3ccc(O)cc3)[C@H]3C[C@H](S(=O)(=O)N(CC(F)(F)F)c4ccc(OC)cc4)[C@@H]2O3)cc1 (relative stereo) | 23.1 | 69.7
19 | 21.2 |  | 0.01 | 0.57 | CCCCCCCCCCOc1ccc(C2=C(c3ccc(O)cc3)[C@H]3O[C@@H]2C[C@@H]3S(=O)(=O)N(CC(F)(F)F)c2ccc(Cl)cc2)cc1 (relative stereo) | > 4.7 | > 100
20 | 51.2 |  | 0.11 | 0.25 | CCCCCCCCCCOc1ccc(C2=C(c3ccc(O)cc3)[C@H]3C[C@H](S(=O)(=O)N(CC(F)(F)F)c4ccc(Cl)cc4)[C@@H]2O3)cc1 (relative stereo) | > 1.9 | > 100
21 | 0.97 |  | 0.53 | 2.51 | CCCCCCOc1ccc(C2=C(c3ccc(O)cc3)[C@H]3O[C@@H]2C[C@@H]3S(=O)(=O)N(CC)c2ccccc2)cc1 (relative stereo) | 43.9 | 42.6
22 | 2.72 |  | 0.03 | 0.59 | CCCCCCCCOc1ccc(C2=C(c3ccc(O)cc3)[C@H]3O[C@@H]2C[C@@H]3S(=O)(=O)N(CC(F)(F)F)c2ccc(Cl)cc2)cc1 | 30.9 | 84.2
23 | 5.22 |  | 0.04 | 2.36 | CCCCCCCCOc1ccc(C2=C(c3ccc(O)cc3)[C@H]3C[C@H](S(=O)(=O)N(CC(F)(F)F)c4ccc(Cl)cc4)[C@@H]2O3)cc1 (relative stereo) | > 19.1 | > 100
24 | 25.3 |  | 0.02 | 1.35 | CCCCCCCCCCOc1ccc(C2=C(c3ccc(O)cc3)[C@H]3O[C@@H]2C[C@@H]3S(=O)(=O)N(CC(F)(F)F)c2ccc(OC)cc2)cc1 (relative stereo) | > 3.9 | > 100
25 | 2.89 |  | 0.04 | 4.14 | CCCCCCOc1ccc(C2=C(c3ccc(O)cc3)[C@H]3C[C@H](S(=O)(=O)N(CC(F)(F)F)c4ccc(Cl)cc4)[C@@H]2O3)cc1 (relative stereo) | 19.8 | 57.5
26 | 1.82 |  | 0.04 | 3.12 | CCCCOc1ccc(C2=C(c3ccc(O)cc3)[C@H]3O[C@@H]2C[C@@H]3S(=O)(=O)N(CC)c2ccccc2)cc1 (relative stereo) | 18 | 32.8
27 | 3.22 |  | 0.16 | 1.13 | CCCCOc1ccc(C2=C(c3ccc(O)cc3)[C@H]3O[C@@H]2C[C@@H]3S(=O)(=O)N(CC(F)(F)F)c2ccc(Cl)cc2)cc1 (relative stereo) | 14.7 | 47.4
